# In patent US7615564B2, “Isoquinoline derivatives having kinasae inhibitory activity and drugs containing the same” (Kirin Beer Kabushiki Kaisha, priority 2002, dated 2009):
# Marks after values point to notes of the source that are not given here.
# Assays:
# [1] = tested on: Mouse-derived CCR2 overexpressing human-derived histiocyte lymphoma (U937/CCR2); experiment: Leukocyte migration inhibitory activity (MCP-1 induced migration, CHEMOTAXICELL); assay type: cell-based; conditions: U-937, test compound concentration 10 μg/ml, MCP-1 ligand, migration 1 hr
# Procedure: Mouse-derived CCR2 overexpressing human-derived histiocyte lymphoma (U937/CCR2), was suspended in a 0.1% BSA-containing RPMI 1640 medium, to which a test compound had been added (5×10^6/ml), and the suspension was incubated for 20 min. A chemical solution (500 μl) (0.1% BSA-containing RPMI 1640 medium DMSO 1%), to which an MCP-1 ligand (1 μM) and the test compound had been added, was added to a 24-well plate. CHEMOTAXICELL was put thereon, and 200 μl of the cell suspension was added to the top layer, followed by migration under a 5% CO2 atmosphere at 37° C. for one hr. The number of cells, which had migrated to the lower chamber, was counted with a particle count analyzer (CDA-500, SYSMEX CORPORATION), and the percentage migration inhibition was calculated by the following equation: Migration inhibition (%)=(1−number of migrated cells in the presence of test compound/number of migrated cells in the absence of test compound)×100
# [2] = biological target: T1, Recombinant Rho kinase (fused protein composed of bovine Rho kinase catalytic region and glutathione S-transferase) (Bos taurus, UniProt Q28021); experiment: Rho kinase inhibitory activity (phosphorylation of S6 231-239 substrate with γ32P-ATP); assay type: biochemical; conditions: concentration inhibiting substrate phosphorylation by 50%
# T1 construct: fused protein composed of bovine Rho kinase catalytic region and glutathione S-transferase; glutathione S-transferase (GST); made in house; host or cells: insect cells infected with baculovirus
# Procedure: This permits the substrate to be labeled with the radioisotope.
# Thereafter, the substrate was adsorbed to a filter paper. ATP was washed away with a phosphoric acid solution, and the amount of the phosphorylated substrate was then measured with a liquid scintillation counter.
# [3] = tested on: anti-GBM nephritis model using WKY rats; experiment: Proteinuria amelioration activity for anti-GBM nephritis model using WKY rats; assay type: in vivo, rat; conditions: mean ± standard error, 6 rats; for Number of cells (ED-1 positive cells per glomerulus): hydrochloride 30 mg/kg oral twice a day, kidney four days after antibody
# Procedure: An anti-GBM antibody produced by immunizing domestic rabbits with a rat-derived GBM fraction was caudointravenously administered to WKY male rats of 8 weeks old to induce nephritis. For 3 days from the time 24 hr after the administration of the antibody, a solution of each of the hydrochlorides prepared in Examples 45 and 46 in purified water was orally administered at a dose of 30 mg/kg twice a day. Three days after the administration of the antibody, twenty-four-hours urine was collected to determine the protein level of urine.
# Four days after the administration of the antibody, the rats were sacrificed by exsanguination, and the kidney was then harvested and was fixed in 4% paraformaldehyde to prepare a specimen for staining. Next, the specimen thus obtained was immunostained using a mouse-anti-rat macrophage monoclonal antibody (ED-1). The number of ED-1 positive cells per glomerulus was counted.
# Likewise, an anti-GBM antibody was caudointravenously administered to WKY male rats of 7 weeks old to induce nephritis. For 4 weeks from the time 24 hr after the administration of the antibody, a solution of the hydrochloride prepared in each of Examples 45 and 46 in purified water was orally administered at a dose of 30 mg/kg twice a day. Four weeks after the administration of the antibody, twenty-four-hours urine was collected to determine the protein level of urine.
# Rho kinase = biological target: T2, Rho kinase (Bos taurus, UniProt Q28021); experiment: Ex vivo experiment: Rho kinase inhibition by serum of orally dosed SD rats; assay type: in vivo, rat; conditions: hydrochloride 30 mg/kg oral, SD rats (N=4), serum diluted 8 times
# T2 construct: fused protein composed of bovine Rho kinase catalytic region and glutathione S-transferase; glutathione S-transferase (GST); made in house; host or cells: insect cells infected with baculovirus
# Procedure: Water or a solution of a hydrochloride salt of a test compound (30 mg/kg) in physiological saline was orally administered to SD rats (N=4). […] The serum was diluted 8 times with physiological saline and was added to Rho kinase, substrate, and labeled ATP according to the method described in Pharmacological Test Example 1, and the amount of the phosphorylated substrate was determined. Rho kinase inhibition was calculated according to the following equation: Inhibition (%)=(1−amount of substrate in the case of test compound administration/amount of substrate in the case of water administration)×100
# [4] = tested on: Spontaneously hypertensive male rats (SHR); experiment: Blood pressure depression activity in spontaneously hypertensive rats; assay type: in vivo, rat; conditions: hydrochloride 30 mg/kg oral; systolic pressure 3 to 4 hr after administration; ± standard error, four SHRs
# Procedure: Spontaneously hypertensive male rats (SHR, Charles River Japan, Inc.) of 15 weeks old were provided. A solution of a hydrochloride of a compound of Example 45 or 46 (30 mg/kg) in purified water was orally administered to the rats. The systolic pressure of SHR was measured immediately before the administration of the test compound and 3 to 4 hr after the administration of the test compound. The percentage blood pressure depression was calculated by the following equation: Blood pressure depression (%)={(blood pressure before administration of test compound−blood pressure after administration of test compound)/blood pressure before administration of test compound}×100
# The blood pressure depression was expressed in terms of the percentage blood pressure depression and the standard error for four SHRs.
# [5] = hydrochloride 30 mg/kg oral twice a day for 4 weeks, 24-hr urine four weeks after antibody
# [6] = hydrochloride 30 mg/kg oral twice a day for 3 days, 24-hr urine three days after antibody
# [7] = blood collection 4 hr after administration
# T1 sequence (Q28021 92-354 limits assumed): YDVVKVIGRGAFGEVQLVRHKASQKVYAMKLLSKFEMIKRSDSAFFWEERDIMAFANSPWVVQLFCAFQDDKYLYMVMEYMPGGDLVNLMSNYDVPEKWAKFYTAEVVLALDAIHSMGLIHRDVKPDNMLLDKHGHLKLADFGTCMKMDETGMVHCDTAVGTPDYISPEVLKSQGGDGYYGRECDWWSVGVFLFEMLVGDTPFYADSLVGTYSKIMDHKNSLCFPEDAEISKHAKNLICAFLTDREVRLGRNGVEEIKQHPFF
# T2 sequence (Q28021 6-553 limits assumed): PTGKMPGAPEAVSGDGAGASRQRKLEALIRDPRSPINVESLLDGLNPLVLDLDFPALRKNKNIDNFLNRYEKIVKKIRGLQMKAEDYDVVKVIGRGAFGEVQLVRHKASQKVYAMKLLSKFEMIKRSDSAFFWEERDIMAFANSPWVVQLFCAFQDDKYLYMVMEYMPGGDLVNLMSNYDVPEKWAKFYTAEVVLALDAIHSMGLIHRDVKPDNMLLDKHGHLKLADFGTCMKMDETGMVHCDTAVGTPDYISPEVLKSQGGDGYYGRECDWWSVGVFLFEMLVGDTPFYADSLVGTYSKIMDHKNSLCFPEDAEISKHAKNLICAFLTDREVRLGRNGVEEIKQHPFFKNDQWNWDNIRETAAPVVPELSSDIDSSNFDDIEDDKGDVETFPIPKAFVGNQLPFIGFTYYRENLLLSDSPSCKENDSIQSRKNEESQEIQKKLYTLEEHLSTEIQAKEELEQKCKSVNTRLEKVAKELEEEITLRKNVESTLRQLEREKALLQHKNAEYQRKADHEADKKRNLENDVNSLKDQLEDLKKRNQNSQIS
IC50 [2],Inhibition (%) (Rho kinase; [7]),Inhibition (%) (Rho kinase; blood collected 3 hr after administration),SMILES,inhibition at 10 µg/mL [1],"Protein level of urine [3, 5]","Protein level of urine [3, 6]",Number of cells (ED-1 positive cells per glomerulus) [3],Blood pressure depression (%) [4]
23 nM,42* %,–,"Nc1cccc(CN2CC[C@@H](Nc3cccc4cnccc34)C2)c1 [Example 46, (3R)-N5-[1-(3-Aminobenzyl)tetrahydro-1H-3-pyrrolyl]-5-isoquinolineamine]",104%,"327.6 ± 55.2 mg/kg, body weight","73.6 ± 9.1 mg/kg, body weight",1.38 ± 0.68,25.1 ± 4.4%
310 nM,17* %,–,"Nc1cccc(CN2CC[C@H](Nc3cccc4cnccc34)C2)c1 [Example 45, (3S)-N5-[1-(3-Aminobenzyl)tetrahydro-1H-3-pyrrolyl]-5-isoquinolineamine]",74%,"779.4 ± 133.9 mg/kg, body weight","91.2 ± 21.5 mg/kg, body weight",2.20 ± 0.65,10.2 ± 3.1%
96 nM,–,–,"Cc1ccc(CN2CCC(Nc3cccc4cnccc34)C2)cc1 (centres unmarked) [Example 7, N-(5-Isoquinolyl)-N-[1-(4-methylbenzyl)tetrahydro-1H-3-pyrrolyl]amine]",103%,–,–,–,–
210 nM,–,–,"Clc1ccccc1CN1CCCC(Nc2cccc3cnccc23)C1 (centres unmarked) [Example 20, N5-[1-(2-Chlorobenzyl)-3-piperidyl]-5-isoquinolylamine]",69%,–,–,–,–
280 nM,–,57%,"Nc1cccc(CN2CCC(Nc3cccc4cnccc34)C2)c1 (centres unmarked) [Example 17, N5-[1-(3-Aminobenzyl)tetrahydro-1H-3-pyrrolyl]-5-isoquinolylamine]",94%,–,–,–,–
66 nM,–,–,"Clc1ccc(CN2CCC(Nc3cccc4cnccc34)C2)cc1 (centres unmarked) [Example 3, N5-[1-(4-Chlorobenzyl)tetrahydro-1H-3-pyrrolyl]-5-isoquinolylamine]",101%,–,–,–,–
230 nM,–,–,"Nc1ccc(CN2CCC(Nc3cccc4cnccc34)C2)cc1 (centres unmarked) [Example 18, N5-[1-(4-Aminobenzyl)tetrahydro-1H-3-pyrrolyl]-5-isoquinolylamine]",94%,–,–,–,–
93 nM,–,–,"Fc1ccc(CN2CCC(Nc3cccc4cnccc34)C2)cc1 (centres unmarked) [Example 4, N5-[1-(4-Fluorobenzyl)tetrahydro-1H-3-pyrrolyl]-5-isoquinolylamine]",98%,–,–,–,–
210 nM,–,–,"Nc1ccccc1CN1CCC(Nc2cccc3cnccc23)C1 (centres unmarked) [Example 16, N5-[1-(2-Aminobenzyl)tetrahydro-1H-3-pyrrolyl]-5-isoquinolylamine]",99%,–,–,–,–
